Reference: patent US10377709B2, “Carboxamide derivatives and the use thereof as medicaments for the treatment of hepatitis B” (Janssen Sciences Ireland UC, priority 2013, dated 2019)

What was measured:
HBV [1] = assay: Anti-HBV activity in HepG2.2.15 stable transfected cell line (HBV DNA from secreted virions, realtime PCR); format: cell-based, Hepatitis B virus; conditions: HepG2.2.15 cells, 6 days of treatment, HBV DNA from secreted virions by realtime PCR
HBV [2] = assay: Anti-HBV activity in HepG2.117 inducible HBV producing cell line (intracellular HBV DNA, realtime PCR); format: cell-based, Hepatitis B virus; conditions: HepG2.117 cells (Tet-off), 3 days of treatment, intracellular HBV DNA by realtime PCR
[3] = Cytotoxicity in HepG2 cells (Resazurin assay); format: cell-based; conditions: human, incubated 4 days, viability by Resazurin assay
[4] = Hepatitis B virus, HepG2.2.15, 144 h
[5] = Hepatitis B virus, HepG2.117, 72 h

Row | SMILES | EC50 (HBV [1]; [4]) | EC50 (HBV [2]; [5]) | CC50 at 4 days [3] | EC50 (HBV [1]) | EC50 (HBV [2])
1 | C[C@@H](NC(=O)C(=O)N1CC[C@H](C(=O)Nc2cc(F)c(F)c(Cl)c2)C1)C(F)(F)F [Compound 11, (S)-N-(3-chloro-4,5-difluorophenyl)-1-(2-oxo-2-(((R)-1,1,1-trifluoropropan-2-yl)amino)acetyl)pyrrolidine-3-carboxamide] | 32 nM | 17 nM | > 25000 nM | – | –
2 | C[C@@H](NC(=O)C(=O)N1CC[C@H](C(=O)Nc2ccc(F)c(Cl)c2F)C1)C(F)(F)F [Compound 21, (3S)-N-(3-chloro-2,4-difluoro-phenyl)-1-[2-oxo-2-[[(1R)-2,2,2-trifluoro-1-methyl-ethyl]amino]acetyl]pyrrolidine-3-carboxamide] | 63 nM | 63 nM | > 25000 nM | – | –
3 | Cc1cc(NC(=O)[C@H]2CCN(C(=O)C(=O)NC3CCCC3)C2)ccc1F [Compound 5] | 112 nM | 46 nM | > 25000 nM | – | –
4 | C[C@H](NC(=O)C(=O)N1CC[C@H](C(=O)Nc2ccc(F)c(C(F)F)c2)C1)C(F)(F)F [Compound 30, (3S)-N-[3-(difluoromethyl)-4-fluoro-phenyl]-1-[2-oxo-2-[[(1 S)-2,2,2-trifluoro-1-methyl-ethyl]amino]acetyl]pyrrolidine-3-carboxamide] | 161 nM | 125 nM | > 25000 nM | – | –
5 | Cc1cc(NC(=O)[C@H]2CCN(C(=O)C(=O)NC3(C)COC3)C2)ccc1F [Compound 7, (3S)-N-(4-Fluoro-3-methylphenyl)-1-{[(3-methyloxetan-3-yl)amino]-(oxo)acetyl}pyrrolidine-3-carboxamide] | 67 nM | 117 nM | > 25000 nM | – | –
6 | CC(C)NC(=O)C(=O)N1CCC(C(=O)Nc2ccc(F)c(Cl)c2F)[C@@H]1C (stereo partly drawn) [Compound 28, (2S)-N-(3-chloro-2,4-difluoro-phenyl)-1-[2-(isopropylamino)-2-oxo-acetyl]-2-methyl-pyrrolidine-3-carboxamide] | 50 nM | 83 nM | > 25000 nM | – | –
7 | CC(C)NC(=O)C(=O)N1CCC(C(=O)Nc2cc(F)c(F)c(Cl)c2)[C@@H]1C (single isomer, unassigned) [Compound 29a] | – | – | > 25000 nM | 10 nM | 11 nM
8 | CC(C)(C)NC(=O)C(=O)N1CC[C@H](C(=O)Nc2ccc(F)c(C#N)c2)C1 [Compound 20, (3S)-1-[2-(tert-butylamino)-2-oxo-acetyl]-N-(3-cyano-4-fluorophenyl)-pyrrolidine-3-carboxamide] | 289 nM | 645 nM | > 25000 nM | – | –
9 | Cc1cc(NC(=O)[C@H]2CCN(C(=O)C(=O)N[C@H]3CCOC3)C2)ccc1F [Compound 9, (3S)-N-(4-Fluoro-3-methylphenyl)-1-{oxo[(3S)-tetrahydrofuran-3-ylamino]-acetyl}pyrrolidine-3-carboxamide] | 120 nM | 134 nM | > 25000 nM | – | –
10 | CC(C)(NC(=O)C(=O)N1CC[C@H](C(=O)Nc2cc(F)c(F)c(Cl)c2)C1)C(F)(F)F [Compound 16, (S)-N-(3-chloro-4,5-difluorophenyl)-1-(2-oxo-2-((1,1,1-trifluoro-2-methylpropan-2-yl)amino)acetyl)pyrrolidine-3-carboxamide] | 58 nM | 35 nM | > 25000 nM | – | –
11 | C[C@@H](NC(=O)C(=O)N1CC[C@H](C(=O)Nc2ccc(F)c(Cl)c2)C1)C(F)(F)F [Compound 15, (S)-N-(3-chloro-4-fluorophenyl)-1-(2-oxo-2-(((R)-1,1,1-trifluoropropan-2-yl)amino)acetyl)pyrrolidine-3-carboxamide] | 25 nM | 47 nM | > 25000 nM | – | –
12 | Cc1cc(NC(=O)[C@H]2CCN(C(=O)C(=O)NC(C)C)C2)ccc1F [Compound 4, (3S)-N-(4-Fluoro-3-methylphenyl)-1-{[(1-methylethyl)amino] (oxo)acetyl}-pyrrolidine-3-carboxamide] | 126 nM | 71 nM | > 25000 nM | – | –
13 | CC(C)NC(=O)C(=O)N1CC[C@H](C(=O)Nc2ccc(F)c(C(F)(F)F)c2)C1 [Compound 23, (3S)-N-[4-fluoro-3-(trifluoromethyl)phenyl]-1-[2-(isopropylamino)-2-oxo-acetyl]pyrrolidine-3-carboxamide] | 380 nM | 575 nM | > 25000 nM | – | –
14 | C[C@H](NC(=O)C(=O)N1CC[C@H](C(=O)Nc2ccc(F)c(Cl)c2)C1)C(F)(F)F [Compound 26, (3S)-N-(3-chloro-4-fluoro-phenyl)-1-[2-oxo-2-[[(1S)-2,2,2-trifluoro-1-methyl-ethyl]amino]acetyl]pyrrolidine-3-carboxamide] | 168 nM | 122 nM | > 25000 nM | – | –
15 | Cc1cc(NC(=O)[C@H]2CCN(C(=O)C(=O)N[C@H](C)CO)C2)ccc1F [Compound 6, (S)-N-(4-fluoro-3-methylphenyl)-1-(2-(((R)-1-hydroxypropan-2-yl)amino)-2-oxoacetyl)pyrrolidine-3-carboxamide] | 301 nM | 257 nM | > 25000 nM | – | –
16 | Cc1cc(NC(=O)[C@H]2CCN(C(=O)C(=O)NC3(C)COC3)[C@H]2C)ccc1F [Compound 10, (2S,3S)-N-(4-Fluoro-3-methylphenyl)-2-methyl-1-{[(3-methyloxetan-3-yl)-amino](oxo)acetyl}pyrrolidine-3-carboxamide] | 8 nM | 9 nM | > 25000 nM | – | –
17 | CC[C@@H](C)NC(=O)C(=O)N1CC[C@H](C(=O)Nc2ccc(F)c(C(F)(F)F)c2)C1 [Compound 24, (3S)-N-[4-fluoro-3-(trifluoromethyl)phenyl]-1-[2-[[(1R)-1-methylpropyl]-amino]-2-oxo-acetyl]pyrrolidine-3-carboxamide] | 134 nM | 384 nM | > 25000 nM | – | –
18 | C[C@H]1[C@H](C(=O)Nc2cc(F)c(F)c(F)c2)CCN1C(=O)C(=O)N[C@H](C)C(F)(F)F [Compound 34a, (2S,3R)-2-methyl-1-[2-oxo-2-[[(1R)-2,2,2-trifluoro-1-methyl-ethyl]amino]acetyl]-N-(3,4,5-trifluorophenyl)pyrrolidine-3-carboxamide] | – | > 500 nM | > 25000 nM | – | –
19 | CC(C)NC(=O)C(=O)N1CCC(C(=O)Nc2cc(F)c(F)c(Cl)c2)[C@@H]1C (stereo partly drawn) [Compound 29, (2S)-N-(3-chloro-4,5-difluoro-phenyl)-1-[2-(isopropylamino)-2-oxo-acetyl]-2-methyl-pyrrolidine-3-carboxamide] | 18 nM | 48 nM | > 25000 nM | – | –
20 | O=C(NC1(C(F)(F)F)CC1)C(=O)N1CC[C@H](C(=O)Nc2ccc(F)c(Cl)c2)C1 [Compound 25, (3S)-N-(3-chloro-4-fluoro-phenyl)-1-[2-oxo-2-[[1-(trifluoromethyl)cyclopropyl]amino]acetyl]pyrrolidine-3-carboxamide] | 42 nM | 31 nM | > 25000 nM | – | –
21 | C[C@@H](NC(=O)C(=O)N1CC[C@H](C(=O)Nc2cc(F)c(F)c(Br)c2)C1)C(F)(F)F [Compound 1, (S)-N-(3-bromo-4,5-difluorophenyl)-1-(2-oxo-2-(((R)-1,1,1-trifluoropropan-2-yl)amino)acetyl)pyrrolidine-3-carboxamide] | 20 nM | 18 nM | > 25000 nM | – | –
22 | CC(C)NC(=O)C(=O)N1CC[C@H](C(=O)Nc2ccc(F)c(C(F)F)c2)C1 [Compound 31, (3S)-N-[3-(difluoromethyl)-4-fluoro-phenyl]-1-[2-(isopropylamino)-2-oxo-acetyl]pyrrolidine-3-carboxamide] | 134 nM | 143 nM | > 25000 nM | – | –
23 | C[C@@H](NC(=O)C(=O)N1CCC(C(=O)Nc2cc(F)c(F)c(Cl)c2)C1(C)C)C(F)(F)F (stereo partly drawn) [Compound 18, N-(3-chloro-4,5-difluoro-phenyl)-2,2-dimethyl-1-[2-oxo-2-[[(1R)-2,2,2-trifluoro-1-methyl-ethyl]amino]acetyl]pyrrolidine-3-carboxamide] | – | 670 nM | > 25000 nM | – | –
24 | C[C@H]1[C@@H](C(=O)Nc2cc(F)c(F)c(F)c2)CCN1C(=O)C(=O)N[C@H](C)C(F)(F)F [Compound 34b, (2S,3S)-2-methyl-1-[2-oxo-2-[[(1R)-2,2,2-trifluoro-1-methyl-ethyl]amino]acetyl]-N-(3,4,5-trifluorophenyl)pyrrolidine-3-carboxamide] | – | 4 nM | > 25000 nM | – | –
25 | C[C@H]1[C@@H](C(=O)Nc2cc(F)c(F)c(Cl)c2)CCN1C(=O)C(=O)N[C@H](C)C(F)(F)F [Compound 33b, (2S,3S)-N-(3-chloro-4,5-difluoro-phenyl)-2-methyl-1-[2-oxo-2-[[(1R)-2,2,2-trifluoro-1-methyl-ethyl]amino]acetyl]pyrrolidine-3-carboxamide] | – | 5 nM | > 25000 nM | – | –
26 | Cc1cc(NC(=O)[C@H]2CCCN(C(=O)C(=O)NC(C)C)C2)ccc1F [Compound 12, (3S)-N-(4-Fluoro-3-methylphenyl)-1-{[(1-methylethyl)amino] (oxo)-acetyl}piperidine-3-carboxamide] | 321 nM | 115 nM | > 25000 nM | – | –
27 | C[C@@H](NC(=O)C(=O)N1CC[C@H](C(=O)Nc2ccc(F)c(C#N)c2)C1)C(F)(F)F [Compound 22, (3S)-N-(3-cyano-4-fluoro-phenyl)-1-[2-oxo-2-[[(1R)-2,2,2-trifluoro-1-methyl-ethyl]amino]acetyl]pyrrolidine-3-carboxamide] | 110 nM | 128 nM | > 25000 nM | – | –
28 | C[C@H]1[C@H](C(=O)Nc2cc(F)c(F)c(Cl)c2)CCN1C(=O)C(=O)N[C@H](C)C(F)(F)F [Compound 33a, (2S,3R)—N-(3-chloro-4,5-difluoro-phenyl)-2-methyl-1-[2-oxo-2-[[(1R)-2,2,2-trifluoro-1-methyl-ethyl]amino]acetyl]pyrrolidine-3-carboxamide] | – | > 500 nM | > 25000 nM | – | –
